Among the data in patent publication US6489487B1, “Triazolone derivatives, use thereof, and intermediates therefor” (Sumitomo Chemical Company, Limited, priority 1998, dated 2002) are melting point values, retold here.

SMILES strings stand for the structures.

In turn, `Cc1ccc(-c2ccccc2)cc1Cn1c(Cl)nn(C)c1=O` [Compound 7, 5-chloro-2-methyl-4-(2-methyl-5-phenylbenzyl)-2,4-dihydro-3H-1,2,4-triazol-3-one] showed a melting point of 115.7 °C.
For `CSc1nn(C)c(=O)n1Cc1cc(-c2ccccc2)ccc1C` [Compound 8, 5-methylthio-2-methyl-4-(2-methyl-5-phenylbenzyl)-2,4-dihydro-3H-1,2,4-triazol-3-one] the value was 95.6 °C.
As for `Cc1ccc(-c2ccccc2)cc1Cn1c(C)nn(C)c1=O` [Compound 10, 2,5-dimethyl-4-(2-methyl-5-phenylbenzyl)-2,4-dihydro-3H-1,2,4-triazol-3-one], the figure is 138.9 °C; as for `Cc1ccc(-c2ccccc2)cc1Cn1c(C2CC2)nn(C)c1=O` [Compound 538, 5-cyclopropyl-2-methyl-4-(2-methyl-5-phenylbenzyl)-2,4-dihydro-3H-1,2,4-triazol-3-one], 102.4 °C.

As a reminder, the melting point is the temperature of the solid-liquid transition.
